Columns and labels:
Type in all cases: cell-based, human
[1] = tested on: sh-hSSTR subtype 5-BON cells; assay: Growth in tetracycline-controlled shRNA knock-down cells; conditions: FIG. 5
Excerpt: To validate that cell growth inhibition is caused by the anti-hSSTR antibody in a subtype specific manner, BON cells were stably transfected with plasmids carrying short hairpin RNA shSSTR subtype 2 or shSSTR subtype 5 in which the expression of the shRNAs were under the control of tetracycline. Sh-hSSTR subtype 2 and sh-hSSTR subtype 5 destabilize the target receptor's messenger RNA and, consequently, knock down the expression of the target gene.

BON cells [2] = assay: MTS cell proliferation assay, growth doubling time
Protocol: The effects of anti-hSSTR subtype 2 and anti-hSSTR subtype 5 antibodies on cell proliferation were tested using CellTiter 96® Aqueous One Solution Cell Proliferation Assay (MTS) (Promega, Cat#G3581). The assay was performed to measure the growth doubling time for BON cells in vitro (FIG. 3, growth doubling time in hours is presented on the Y-axis). The growth doubling time for BON cells following treatment with rabbit IgG was around 28 to 30 hours (similar to vehicle alone). […] Cell growth was detected at 490 nm (colorimetric detection) by using instrument Victor 3V (Perkin Elmer) once every 24 hours in the duration of 96 hours.
The resulting maximal suppression in hours (20 hours) is designated as 100% of growth suppression. The difference measured in doubling time detected between experimental samples and untreated samples divided by the maximal suppression yields the percent growth suppression.
BON cells were seeded, grown and maintained in F12 HAM (Invitrogen, Cat#31765035)/D-MEM (Invitrogen, Cat#10567-014) (50/50) with 10% certified fetal bovine serum (FBS) (Invitrogen, Cat#16000-044) in 96-well cell culture dishes (Costar, Cat# 3590) at a density of 2500 cells/well. […] Cell growth was detected at 490 nm (colorimetric detection) by using instrument Victor 3V (Perkin Elmer) once every 24 hours in the duration of 96 hours.

BON cells [3] = assay: Serotonin EIA, serotonin release
Protocol: A serotonin ([…]) assay was performed using Serotonin EIA (Biosource, Cat# KAPL10-0900) to measure serotonin release by BON cells over a 48-hour period with or without treatment. […] After 24 hours, the BON cells were subjected to six different daily treatments (at maximum dosages) and grown in FBS-free cell growth media for 2 days in a sterile tissue culture chamber at 37° C. with 6% CO2. These six treatments were: […] The anti-hSSTR Abs (4)-(6) were antibodies produced in the experiment described in Example 1. At the end of each treatment, 1× Halt Protease Inhibitor cocktail (Pierce, Cat# 78415) was immediately added to each sample and the media was collected from each sample and used for Serotonin detection. Next, cells were dissociated from the plate using 2 ml of 1× trypsin-EDTA (Invitrogen Cat#2520) in cell growth media and incubated at 37° C. with 6% CO2 for 5 minutes. Subsequently, an additional 8 ml of cell growth media was added to neutralize trypsin-EDTA, and subjected to 1000 rpm at 4° C. in 15 ml Falcon tubes using Beckman table top centrifuge. Guava Technologies PCA-96 instrument (tabletop flow cytometer) and Viacount flex reagent (Guava Technologies, Cat# 4500-0100) were then used to determine the number of cells for the abovementioned treatments. The results were as follows: […] […]

BON cells [4] = assay: Cell cycle progression, propidium iodide flow cytometry; conditions: 48 hours, 5 μg/ml antibodies or rabbit IgG, 100 nM octreotide, FIG. 12
Protocol: Propidium iodide dye was used in flow cytometry (Guava Cell Cycle Reagent Cat #4500-0220) to stain DNA and detect cell cycle progression in BON cells. Treatment conditions for the experiment were as follows: (i) D-PBS; (ii) 5 μg/ml rabbit IgG; (iii) 5 μg/ml anti-hSSTR subtype 2 antibodies; […] Treatments, as described above, were added to the cells once every 24 hours for a total of 48 hours. At the end of each treatment, cells were dissociated from the plate using 2 ml 1× trypsin-EDTA (Invitrogen Cat#2520). […] Next, phosphate buffer solution (D-PBS) (Invitrogen Cat#14190-144) was used as the exchange buffer and 15 ml Falcon tubes with samples were spun at 900 rpm using a table top centrifuge (Beckman Coulter). After centrifugation, supernatant was discarded and cell pellet was resuspended in 10 ml of PBS and this was repeated two times. […] Guava Cell Cycle Reagent (Guava Technologies, Cat#4500-0220) was used for detection by using the Guava PCA96 instrument. Cell Cycle data was analyzed by using Guava Cell Cycle module (Guava Technologies, Cat# 0500-0480). For further detail, please see Guava Cell Cycle Reagent protocol (Guava Technologies).

Compound: C[C@@H](O)[C@@H]1NC(=O)[C@H](CCCCN)NC(=O)[C@@H](Cc2c[nH]c3ccccc23)NC(=O)[C@H](Cc2ccccc2)NC(=O)[C@@H](NC(=O)[C@H](N)Cc2ccccc2)CSSC[C@@H](C(=O)N[C@H](CO)[C@@H](C)O)NC1=O [octreotide]
- growth doubling time under octreotide compared to BON cells [1]: did not change
- approximate EC50 (growth) (BON cells [2]; octreotide 0.5, 1, 10 to 50 nM, FIG. 5): single nM
- doubling time (BON cells [2]; saturating octreotide (50 nM)): ~50 h
- serotonin level in the media (BON cells [3]; 48-hour period, 5 μg/ml antibody or rabbit IgG, 100 nM octreotide, four independent experiments): 2126 attogram/cell
- decrease of serotonin release against control (BON cells [3]; 48 hours, antibodies against rabbit IgG, octreotide against vehicle (PBS)): 2.7 fold
- cell population in G0/G1 (BON cells [4]): ~75%

From US20090016989A1, “ANTIBODIES TO HUMAN SOMATOSTATIN RECEPTOR AND METHODS OF USE” (priority 2007, published 2009)
